Laboratory results as given in ChEMBL document CHEMBL3507680, “University of Dundee, Gates Library screen for HepG2 cell viability”.

Experiment: Human HepG2 cell viability assay in 384 well format
Assay type: toxicity, cell-based
Design: dose 125 nL, time 70.5 hour; concentration not given beside the values
Conditions: HepG2 cells, read-out: Inhibition

SMILES | cytotoxicity at 70.5 h [%]
O=C(NCCc1c[nH]cn1)c1ccc2c(c1)C(=O)N(C1CCCC1)C2=O | -1.68
N#Cc1nc(COc2ccc3c(c2)OCO3)oc1NC1CCCCC1 | -28.5
CC(C)CCN1C(=O)c2ccc(C(=O)NCCc3c[nH]cn3)cc2C1=O | -4.63
Cc1cccc2c1N(C)C(=O)C21CC(=O)Nc2c1cnn2C(C)(C)C (centres undefined) | -18.4
CC(C)[C@H](NC(=O)NC1CCS(=O)(=O)C1)C(=O)NCc1ccc(Cl)cc1 (some centres undefined) | -18.2
COCCNc1nc(N2CCCC2)nc2nccnc12 | 26.5
Cc1cc(C)n(Cc2ccc(-c3noc(C(=O)NCCO)n3)cc2)n1 | -18.6
Cc1occc(=O)c1OCc1noc(C(=O)NC2CCCC2)n1 | -16.2
Cn1cnnc1SC1CCc2ccccc2NC1=O (centres undefined) | -20.5
COCCCN1C(=O)c2ccc(C(=O)NCCc3c[nH]cn3)cc2C1=O | 1.41
COc1cc2c(cc1OC)C(=O)C(Sc1nncn1C)C2 (centres undefined) | -4.34
CNC(=O)c1nc(CC(=O)Nc2cccc(C(F)(F)F)c2)no1 | 22.3
CC[C@@H](C)[C@H](NC(=O)NC1CCS(=O)(=O)C1)C(=O)NCc1ccncc1 (some centres undefined) | 10.2
CC(C)[C@H](NC(=O)NC1CCS(=O)(=O)C1)C(=O)NCc1ccccc1 (some centres undefined) | -19
COC(=O)[C@@H](NC(=O)c1snnc1-c1ccc(OC)cc1)C(C)C | 11.1
CCc1c(C)sc2nc3n(CCN(C)C)nc(SC)n3c(=O)c12 | 20.8
CCN(CC)C(=O)CSc1sc2c(O)cc(=O)[nH]c2c1C(N)=O | -14.3
CCOC(=O)c1nc(CC(=O)Nc2ccc3cc[nH]c3c2)no1 | -9.72
Cc1nc(NC(=O)c2c(-n3cnnn3)sc3c2CCCC3)sc1C | -10.4
CNC(=O)c1nc(CC(=O)Nc2ccc3cc[nH]c3c2)no1 | -13.1
O=C(NCCc1c[nH]c2ccccc12)C1(n2cnnn2)CCCCC1 | -28.6
COc1cccc(NC(=O)Cn2c(=O)nc(N)c3cc(C)sc32)c1 | -17.3

SMILES | cytotoxicity at 70.5 h [%]
CCc1c(C)sc2nc3n(CC(N)=O)nc(SC)n3c(=O)c12 | 5.38
Cc1csc(NC(=O)c2ccc(NC(=O)N3CCOCC3)cc2)n1 | 3.47
CCc1c(C)sc2c1c(N)nc(=O)n2CCN1CCCCC1 | 5.23
C=C(C)Cn1c(=O)nc(N)c2c(-c3ccc(OC)cc3)csc21 | -9.64
CCc1c(C)sc2nc3n(CCN4CCOCC4)nc(SC)n3c(=O)c12 | 5.28
Cc1cc2c(N)nc(=O)n(CC(=O)Nc3cccc(Cl)c3)c2s1 | -13.3
Cc1cc2c(N)nc(=O)n(CC(=O)Nc3ccccc3)c2s1 | 8.01
Cc1occc(=O)c1OCC(=O)N1CCN(c2cccc(Cl)c2)CC1 | 2.39
CC(C)c1ccc(C2CC(=O)Nc3c2cnn3C)cc1 (centres undefined) | -15.6
Cn1ncc2c1NC(=O)CC2c1cccs1 (centres undefined) | -4.29
COCCNC(=O)CNC(=O)c1nc(Cc2c(Cl)cccc2Cl)no1 | -8.7
Cc1cnc(NC(=O)c2csc(NC3CCCC3)n2)s1 | 43.8
COc1cc(C2CC(=O)Nc3c2cnn3C)ccc1O (centres undefined) | 46.1
COCc1nnn2c1CN(C(=O)c1ccnnc1)CCC2 | 8.76
O=C1[C@@H]2CCN(Cc3ccc(F)cc3)C[C@@H]2OCCN1c1cccnc1 | -3.72
Cc1ccc(N2CCC3(CCN(C(=O)C4CCOC4)CC3)CC2)nn1 (centres undefined) | -3.84
O=C(NC[C@H]1OC[C@@H]2CCN(c3ncccn3)C[C@@H]21)c1ccnnc1 | 1.23
O=S(=O)(C1CC1)N1CCn2c(Cn3cncn3)cnc2C1 | 0.357
Cn1nc(CNC(=O)CC#N)c2c1CN(C(N)=O)CC2 | 11.4
Cc1cnc(N2CC(C(=O)N3CCOCC3)C3(CCOCC3)C2)nc1 (centres undefined) | -3.59
CC(=O)Nc1ccc2c(c1)C1(CCOCC1)C(=O)N2c1ccsc1 | -9.04
CC(C)Nc1ccc2c(c1)C1(CCOCC1)C(=O)N2c1ccsc1 | -7.35

SMILES | cytotoxicity at 70.5 h [%]
Cc1cnc(N2CCOC3(CCCN(c4ncccn4)C3)C2)nc1 (centres undefined) | -4.18
CCOCC1CN(c2ncc(F)cn2)Cc2cn(CC)nc21 (centres undefined) | -11.1
COCCN1C(=O)C2(CCC(C(=O)Nc3cccc(C)c3)CC2)N=C1C (centres undefined) | -9.96
CC(C)NC(=O)N1CCOC2(CCCN(c3cccc(C#N)c3)C2)C1 (centres undefined) | -10.4
CCn1cc2c(n1)C(COCC1CC1)CN(c1ccc(C)nn1)C2 (centres undefined) | -16.7
O=C(C1CN(c2ncc(F)cn2)CC12CCOCC2)N1CCOCC1 (centres undefined) | -9.96
COCCN1C(=O)C2(CCC(C(=O)Nc3ccc(F)cc3)CC2)N=C1C (centres undefined) | -7.58
Cc1nnn2c1COC(CNCc1ccncc1)C2 (centres undefined) | -15.7
O=C(NC1CCCC1)NC1CCc2[nH]c(=O)ccc2C1 (centres undefined) | -7.5
O=C(c1nc2c(s1)CCCN2C(=O)C1CC1)N1CCCC1 | -3.91
c1ccc(CNCC2Cn3nncc3CO2)nc1 (centres undefined) | -7.76
O=C(NC1CCC1)[C@H]1C[C@@H]2CN(C(=O)Nc3ccc(F)cc3)C[C@H]1O2 | -5.31
Cc1cccc(COC2COC3(CCN(Cc4ccoc4)CC3)C2)n1 (centres undefined) | -16.1
CC(C)NC(=O)N1CCN(S(C)(=O)=O)CC2(CNC(=O)C2)C1 (centres undefined) | -17.9
O=C(c1cnccn1)N1CCn2cnc(COCC3CC3)c2C1 | 14.8
CS(=O)(=O)NC[C@]12COC[C@H]1CN(C(=O)c1ccncn1)C2 | 15.5
CS(=O)(=O)NC[C@]12COC[C@H]1CN(C(=O)c1cnccn1)C2 | 19.5
O=C(NCC1CC1)C1CN(C(=O)c2cnccn2)CC12CCOCC2 (centres undefined) | -2.91
c1cc(CN2CCO[C@@H]3CNC[C@@H]32)cs1 | -2.99
CC(C)N(C)Cc1cncc2c1CCN(C(=O)c1ccc[nH]1)C2 | -1.2
CC(C)N(C)Cc1cncc2c1CCN(C(=O)c1cccc(C#N)c1)C2 | -4.95
CC(C)N(C)Cc1cncc2c1CCN(C(=O)c1ccccc1F)C2 | -1.95

SMILES | cytotoxicity at 70.5 h [%]
O=C(NC1CC1)[C@H]1CN(Cc2ccc3c(c2)OCO3)C[C@H]2OCC[C@@H]12 | -1.23
O=C1COC2(CCN(Cc3ccoc3)CC2)CN1CCn1cccn1 | -2.81
Fc1cnc(N2CCc3nnc(COc4ccccn4)n3CC2)nc1 | -3.38
CC(C)c1nc(-c2cc(C(=O)NCCN(C)C)c3ccccn23)cs1 | -1.61
CN(C)Cc1nnc2n1CCN(c1cnccn1)CC2 | 0.405
Cc1ccc(N2CCC3(CCCN3Cc3ccn(C)n3)CC2)nn1 | -2.31
OCCOCc1n[nH]c2c1CN(Cc1ccco1)C2 | 12.9
CC(C)C(=O)N1CCCC2(CCCN2CC2CCCC2)C1 (centres undefined) | -2.41
O=C(c1ccc2[nH]ccc2c1)N1Cc2nc(CN3CCCCC3)oc2C1 | -3.84
COCC1CC2(CCN(C(N)=O)CC2)CN1Cc1csc(C)n1 (centres undefined) | -3.74
Cc1nc(CN2C[C@@H]3CN(c4ncc(F)cn4)C[C@@H]3C2=O)cs1 | -10.5
O=C(C1CN(c2ncc(F)cn2)CC12CCOCC2)N1CC=CC1 (centres undefined) | -5.64
Cc1cccc(N2CC3(CCN(S(=O)(=O)C4CC4)C3)C2)n1 | -6.18
CCN1C[C@H]2C3(CCN(S(=O)(=O)CC)CC3)CC[C@@]2(C(=O)N(C)C)C1 | -4.85
Cc1cnc(N2C[C@H]3CN(Cc4csc(C)n4)C(=O)[C@H]3C2)nc1 | -9.66
CC(C)c1cc(C(=O)N2CCOC3(CCNCC3)C2)no1 | -5.65
CCS(=O)(=O)N1CCC2(CC1)CC[C@@]1(C(=O)N(C)C)CN(C)C[C@@H]21 | -15.2
CC(=O)N1CCCC2(C1)CN(c1ncc(C)cn1)CCO2 (centres undefined) | -17.1
Cc1cc(CNCC2Cn3nnc(C)c3CO2)oc1C (centres undefined) | -7.06
Cc1ccc(CN2C[C@@H]3CN(c4ncccn4)C[C@@H]3C2)cc1 | -4.24
N#Cc1cccc(C(=O)N2CCc3c(COCC4CC4)cncc3C2)c1 | -17.6
Cc1cnc(N2CCC3(CC(=O)N(Cc4csc(C)n4)C3)C2)nc1 (centres undefined) | -11.1

SMILES | cytotoxicity at 70.5 h [%]
Cc1occc1C(=O)N1CCOCC2(CCN(C3CCOCC3)C2)C1 (centres undefined) | -19.7
O=C(N1CCOCC1)[C@@]12CCO[C@@H]1CCN(C1CCCCC1)C2 | 47.3
Cc1cccc(CN2CCC3(CCCN(C(=O)N4CCCC4)C3)C2=O)n1 (centres undefined) | 40
CC(=O)NCC(=O)N1CCn2cc(CN(C)Cc3ccco3)nc2C1 | 2.22
Cc1nnc(N2C[C@H]3OCC[C@H]3[C@H](C(=O)NCC3CC3)C2)s1 | 1.29
O=C([C@@H]1C[C@@H]2CCN(Cc3ccccn3)C[C@H]2O1)N1CCCO1 | 2.74
CCn1ncc2c1C(COCC1CC1)N(Cc1nccs1)CC2 (centres undefined) | -0.956
c1cncc(COCc2n[nH]c3c2CN(Cc2ccco2)C3)c1 | -1.5
COc1ccc(CN2CCc3c(CNC(=O)CC#N)nn(C)c3C2)cc1 | -1.4
CN1CCCn2c(nc(CNC(=O)c3nccn3C)cc2=O)C1 | -1.89
CCN1CCC2(CC1)CC(COC)N(Cc1csc(C)n1)C2 (centres undefined) | -5.79
COCC1CC2(CCN(CC3CC3)CC2)CN1Cc1csc(C)n1 (centres undefined) | -5.11
COCC1CC2(CCNCC2)CN1Cc1csc(C)n1 (centres undefined) | -8.39
Cc1nc(Cn2c3c(ccc2=O)CCN(CC2CC2)CC3)cs1 | -2.72
CN(C)[C@@H]1COC[C@@H]2CN(Cc3ccc4c(c3)OCO4)C[C@@H]21 | -3.34
c1cncc(OCc2noc3c2CN(Cc2cccs2)CC3)c1 | -24.1
CCN(CC)CCN1CC[C@H]2OCC[C@@]2(C(=O)N2CCOCC2)C1 | -14.8
Cc1ccc(CN2CCOC3(COCCN(C(C)C)C3)C2)s1 (centres undefined) | 18.3
CCn1ncc2c1C(COCC1CC1)N(Cc1cnn(C)c1)CC2 (centres undefined) | -3.67
Cc1cnc2n1CCN(C)C21CCN(CC2CC2)CC1 | -0.923
Cc1ccc(-c2cnc3n2CCN(C)C32CCN(CC3CC3)CC2)cc1 | -1.92
